{"source": "patent US20050180932A1", "about": "“Ultraviolet absorption compositions” (AJINOMOTO CO. INC, priority 2002, published 2005)", "key": {"[1]": {"assay": "Solubility in water at room temperature", "format": "physicochemical"}, "[2]": {"assay": "Wavelength at the maximum UV absorption and molar absorption coefficient (UV spectrometer, water/alcohol solution)", "format": "physicochemical", "conditions": "for Starting UV absorbent: Mol.Abs.Coef. (ε) / Amide-containing guanidine derivative: Mol.Abs.Coef. (ε): in M-1cm-1 (unit assumed); for Starting UV absorbent: Wavelength / Amide-containing guanidine derivative: Wavelength: UV absorption maximum", "procedure": "The wavelength showing the maximum absorption was measured by means of a UV spectrometer in a water and/or alcohol solution of R^1COOH or its salt as mentioned in detail in the Examples.\nTest 1. Wavelength at the Maximum Absorption"}}, "note": "Where a name gives a salt, the structure may show the parent alone."}
{"smiles": "COc1ccc(C=CC(=O)N[C@@H](CCCNC(=N)N)C(=O)O)cc1", "note": "[Compound 3 (HCl salt)]", "values": [{"measurement": "Solubility of amide-containing guanidine derivative", "setting": "[1]", "value": ">15", "unit": "wt %"}]}
{"smiles": "CCCCCCCCCCCCOc1ccc(C=CC(=O)NCCCCNC(=N)N)cc1.Cl", "note": "[Compound 5, N-paradodecyloxycinnamoylamidobutylguanidine hydrochloride]", "values": [{"measurement": "Solubility of amide-containing guanidine derivative", "setting": "[1]", "value": ">7", "unit": "wt %"}]}
{"smiles": "COc1ccc(C=CC(=O)O)cc1", "note": "[Starting UV absorbent of Prep.3, p-methoxycinnamic acid, reference compound]", "values": [{"measurement": "Solubility of starting UV absorbent", "setting": "[1]", "value": "<0.1", "unit": "wt %"}, {"measurement": "Starting UV absorbent: Mol.Abs.Coef. (ε)", "setting": "[2]; 30% methanol solution", "value": 20845}, {"measurement": "Starting UV absorbent: Wavelength", "setting": "[2]; 30% methanol solution", "value": 307, "unit": "nm"}]}
{"smiles": "CCCCCCCCCCCCOc1ccc(C=CC(=O)O)cc1", "note": "[Starting UV absorbent of Prep.4, p-dodecyloxycinnamic acid, reference compound]", "values": [{"measurement": "Solubility of starting UV absorbent", "setting": "[1]", "value": "<0.01", "unit": "wt %"}, {"measurement": "Starting UV absorbent: Mol.Abs.Coef. (ε)", "setting": "[2]; 40% isopropyl alcohol solution", "value": 21246}, {"measurement": "Starting UV absorbent: Wavelength", "setting": "[2]; 40% isopropyl alcohol solution", "value": 309, "unit": "nm"}]}
{"smiles": "N=C(N)NCCCCNC(=O)C=Cc1ccccc1.N=C(N)NCCCCNC(=O)C=Cc1ccccc1.O=S(=O)(O)O", "note": "[Compound 1, N-cinnamoylamidobutylguanidine ½ sulfate]", "values": [{"measurement": "Amide-containing guanidine derivative: Mol.Abs.Coef. (ε)", "setting": "[2]; 30% methanol solution", "value": 21885}, {"measurement": "Amide-containing guanidine derivative: Wavelength", "setting": "[2]; 30% methanol solution", "value": 280, "unit": "nm"}]}
{"smiles": "O=C(O)C=Cc1ccccc1", "note": "[Starting UV absorbent of Prep.1, cinnamic acid, reference compound]", "values": [{"measurement": "Starting UV absorbent: Mol.Abs.Coef. (ε)", "setting": "[2]; 30% methanol solution", "value": 18661}, {"measurement": "Starting UV absorbent: Wavelength", "setting": "[2]; 30% methanol solution", "value": 279, "unit": "nm"}]}
{"smiles": "COc1ccc(C=CC(=O)N[C@@H](CCCNC(=N)N)C(=O)O)cc1", "note": "[Compound 3, N-paramethoxycinnamoylarginine]", "values": [{"measurement": "Amide-containing guanidine derivative: Mol.Abs.Coef. (ε)", "setting": "[2]; 30% methanol solution", "value": 24977}, {"measurement": "Amide-containing guanidine derivative: Wavelength", "setting": "[2]; 30% methanol solution", "value": 307, "unit": "nm"}]}
{"smiles": "CCCCCCCCCCCCOc1ccc(C=CC(=O)NCCCCNC(=N)N)cc1.CCCCCCCCCCCCOc1ccc(C=CC(=O)NCCCCNC(=N)N)cc1.O=S(=O)(O)O", "note": "[Compound 4, N-paradodecyloxycinnamoylamidobutylguanidine ½ sulfate]", "values": [{"measurement": "Amide-containing guanidine derivative: Mol.Abs.Coef. (ε)", "setting": "[2]; 40% isopropyl alcohol solution", "value": 24122}, {"measurement": "Amide-containing guanidine derivative: Wavelength", "setting": "[2]; 40% isopropyl alcohol solution", "value": 307, "unit": "nm"}]}
{"smiles": "Cl.N=C(N)NCCCCNC(=O)C=Cc1ccccc1", "note": "[Compound 2, N-cinnamoylamidobutylguanidine hydrochloride]", "values": [{"measurement": "Solubility of amide-containing guanidine derivative", "setting": "[1]", "value": ">15", "unit": "wt %"}]}
{"smiles": "CCCCCCCCCCCCOc1ccc(/C=C/C(=O)N[C@@H](CCCNC(=N)N)C(=O)O)cc1", "note": "[Compound 6, N-paradodecyloxycinnamoylarginine]", "values": [{"measurement": "Amide-containing guanidine derivative: Mol.Abs.Coef. (ε)", "setting": "[2]; 40% isopropyl alcohol solution", "value": 25740}, {"measurement": "Amide-containing guanidine derivative: Wavelength", "setting": "[2]; 40% isopropyl alcohol solution", "value": 308, "unit": "nm"}]}
